Assay results published in ChEMBL document CHEMBL1134808, “Evolution of anti-HIV drug candidates. Part 1: From alpha-anilinophenylacetamide (alpha-APA) to imidoyl thiourea (ITU)” (Bioorg Med Chem Lett, 2001).
Where a name gives a salt, the structure may show the parent alone.

What was measured:
MT4 [1] = assay: Compound was tested for potency to achieve protection of MT-4 cells from 100I strain of HIV-1 virus; type: functional, cell-based; conditions: Homo sapiens
MT4 [2] = assay: Compound was tested for potency to achieve protection of MT-4 cells from 106A strain of HIV-1 virus; type: functional, cell-based; conditions: Homo sapiens
MT4 [3] = assay: Compound was tested for potency to achieve protection of MT-4 cells from 190A strain of HIV-1 virus; type: functional, cell-based; conditions: Homo sapiens
MT4 [4] = assay: Compound was tested for potency to achieve protection of MT-4 cells from 101E strain of HIV-1 virus; type: functional, cell-based; conditions: Homo sapiens
MT4 [5] = assay: Compound was tested for potency to achieve protection of MT-4 cells from 181C strain of HIV-1 virus; type: functional, cell-based; conditions: Homo sapiens
MT4 [6] = assay: Compound was tested for potency to achieve protection of MT-4 cells from LAI strain of HIV-1 virus; type: functional, cell-based; conditions: Homo sapiens
MT4 [7] = assay: Compound was tested for potency to achieve protection of MT-4 cells from 103N strain of HIV-1 virus; type: functional, cell-based; conditions: Homo sapiens
MT4 [8] = assay: Compound was tested for potency to achieve protection of MT-4 cells from 188L strain of HIV-1 virus; type: functional, cell-based; conditions: Homo sapiens
[9] = test system: Human immunodeficiency virus 1; assay: Compound potency to achieve protection of MT-4 cells from HIV-1 cytopathicity; type: functional, organism-based, MT4
[10] = Human immunodeficiency virus 1, MT4

| SMILES | IC50 [9, 10] [nM] | further results |
| --- | --- | --- |
| CC(C)Nc1cccnc1N1CCN(C(=O)c2cc3cc(NS(C)(=O)=O)ccc3[nH]2)CC1 [DELAVIRDINE MESYLATE] | – | IC50 (MT4 [1]): 2510 nM; IC50 (MT4 [2]): 1590 nM; IC50 (MT4 [3]): 63 nM; IC50 (MT4 [4]): 158 nM; IC50 (MT4 [5]): 2000 nM; IC50 (MT4 [6]): 63 nM; IC50 (MT4 [7]): 2510 nM; IC50 (MT4 [8]): 1260 nM |
| N=C(Cc1c(Cl)cccc1Cl)NC(=S)Nc1ccccc1 | 123 | – |
| N#Cc1ccccc1NC(=S)NC(=N)Cc1c(Cl)cccc1Cl | 631000 | – |
| NC(=O)C(/N=C(\S)Nc1ccc(Cl)cc1)c1c(Cl)cccc1Cl (stereo not given) | 160 | – |
| N=C(Cc1c(Cl)cccc1Cl)NC(=S)NCc1ccc(Cl)cc1 | 692 | – |
| N#Cc1ccc(NC(=S)NC(=N)Cc2c(Cl)ccc(Cl)c2Cl)cc1 | 5 | – |
| NC(=O)C(NC(=O)c1ccccc1[N+](=O)[O-])c1c(Cl)cccc1Cl (stereo not given) | > 79000 | – |
| N#Cc1ccc(NC(=O)NC(=N)Cc2c(Cl)cccc2Cl)cc1 | 15 | – |
| NC(=O)C(NCc1ccccc1[N+](=O)[O-])c1c(Cl)cccc1Cl (stereo not given) | > 250000 | – |
| N=C(Cc1c(Cl)cccc1Cl)NC(=S)Nc1ccc(Cl)cc1Cl | 347 | – |
| N#Cc1ccc(NC(=S)NC(=N)Cc2ccc(Cl)cc2Cl)cc1 | 7 | – |
| N#Cc1ccc(NC(=N)NC(=N)Cc2c(Cl)cccc2Cl)cc1 | 7940 | – |
| NC(=O)C(/N=C(\S)Nc1cccc(Cl)c1)c1c(Cl)cccc1Cl (stereo not given) | 5200 | – |
| CN(/C(S)=N/C(=N)Cc1c(Cl)cccc1Cl)c1ccc(C#N)cc1 | 58900 | – |
| N#Cc1ccc(NC(=S)NC(=N)Cc2ccc(Cl)cc2)cc1 | 148 | – |
| N#Cc1ccc(NC(=S)/N=C(/Cc2c(Cl)cccc2Cl)Nc2ccccc2)cc1 | 1320 | – |
| NC(=O)C(NC(=O)Nc1ccccc1[N+](=O)[O-])c1c(Cl)cccc1Cl (stereo not given) | > 320000 | – |
| Cc1ccccc1CC(=N)/N=C(\S)Nc1ccc(C#N)cc1 | 26 | – |
| NC(=O)C(Nc1ccccc1Cl)c1c(Cl)cccc1Cl (stereo not given) | 400 | – |
| N#Cc1ccc(NC(=S)NS(=O)(=O)Cc2c(Cl)cccc2Cl)cc1 | 100000 | – |
| N#Cc1ccc(NC(=S)NC(=N)Cc2ccccc2)cc1 | 380 | – |

| SMILES | IC50 [9, 10] [nM] | further results |
| --- | --- | --- |
| CC(C(=N)/N=C(\S)Nc1ccc(C#N)cc1)c1c(Cl)cccc1Cl (stereo not given) | 158 | – |
| N#Cc1ccc(NC(=S)NC(=N)Cc2ccccc2Cl)cc1 | 14 | – |
| N#Cc1cccc(NC(=S)NC(=N)Cc2c(Cl)cccc2Cl)c1 | 126 | – |
| N#Cc1ccc(NC(=S)NC(=N)Cc2c(Cl)cccc2Cl)cc1 | 3 | IC50 (MT4 [1]): 513 nM; IC50 ([9]; mt4): 2.5 nM; IC50 (MT4 [2]): 382 nM; IC50 (MT4 [3]): 2 nM; IC50 (MT4 [4]): 19 nM; IC50 (MT4 [5]): 511 nM; IC50 (MT4 [6]): 3 nM; IC50 (MT4 [7]): 589 nM; IC50 (MT4 [8]): 318 nM |
| N=C(Cc1c(Cl)cccc1Cl)NC(=S)Nc1ccc(Cl)cc1 | 13 | – |
| N#Cc1ccc(N/C(S)=N/C(=N)Cc2c(F)cccc2F)cc1 | 6 | – |
| N=C(Cc1c(Cl)cccc1Cl)NC(=S)Nc1c(Cl)cc(Cl)cc1Cl | 42700 | – |
| CCN/C(Cc1c(Cl)cccc1Cl)=N\C(S)=N\c1ccc(C#N)cc1 | 158 | – |
| N#Cc1ccc(NC(=S)NC(=N)Cc2cccc(Cl)c2)cc1 | 68 | – |
| CN/C(Cc1c(Cl)cccc1Cl)=N\C(S)=N\c1ccc(C#N)cc1 | 3.9 | – |
| C/N=C(/Cc1c(Cl)cccc1Cl)NC(=O)Nc1ccc(C#N)cc1 | 214 | – |
| NC(=O)C(Nc1ccccc1[N+](=O)[O-])c1c(Cl)cccc1Cl (stereo not given) | 100 | – |
| N#Cc1ccc(NC(=S)NC(=N)CCc2c(Cl)cccc2Cl)cc1 | 525 | – |
| NC(=O)C(/N=C(\S)Nc1ccccc1Cl)c1c(Cl)cccc1Cl (stereo not given) | > 60000 | – |
| N=C(Cc1c(Cl)cccc1Cl)NC(=S)NCCc1ccc(Cl)cc1 | 1620 | – |
| CC(=O)c1ccc(C)cc1NC(C(N)=O)c1c(Cl)cccc1Cl (stereo not given) [LOVIRIDE] | – | IC50 (MT4 [1]): 50 nM; IC50 (MT4 [2]): 1000 nM; IC50 (MT4 [3]): 2510 nM; IC50 (MT4 [4]): 63 nM; IC50 (MT4 [5]): 15800 nM; IC50 (MT4 [6]): 50 nM; IC50 (MT4 [7]): 1260 nM; IC50 (MT4 [8]): 50100 nM |
| COc1ccccc1CC(=N)/N=C(\S)Nc1ccc(C#N)cc1 | 30 | – |
| N#Cc1ccc(NC(=S)NC(=N)C2(c3c(Cl)cccc3Cl)CC2)cc1 | 1480 | – |
| N#Cc1ccc(NC(=S)NC(=O)Cc2c(Cl)cccc2Cl)cc1 | 631000 | – |
| NC(=O)C(Nc1ccc(Cl)cc1)c1c(Cl)cccc1Cl (stereo not given) | > 160000 | – |
| N#Cc1ccc(NC(=S)NC(=N)c2c(Cl)cccc2Cl)cc1 | 22900 | – |
